Measurements taken from publication PMC5166568, “Flexible synthesis of cationic peptide–porphyrin derivatives for light-triggered drug delivery and photodynamic therapy” (Organic & Biomolecular Chemistry, 2016).

How the values were obtained:
[1] = test system: MC28 cells
[2] = test system: MC28 cells; remark: listed apart in the source
[3] = test system: MC28 cells; format: cell-based, rat

Compound | LD50 PDT ([1]; 18 h) [nM] | LD50 dark ([1]; 24 h) | cellular uptake [2] | subcellular localisation [2] | reduction in viability using saporin alone [3]
N=C(N)NCCC[C@H](NC(=O)CN)C(=O)N[C@@H](CCCCN)C(=O)N[C@@H](CCCCN)C(=O)N[C@@H](CCCNC(=N)N)C(=O)N[C@@H](CCCNC(=N)N)C(=O)N[C@@H](CCC(N)=O)C(=O)N[C@@H](CCCNC(=N)N)C(=O)N[C@@H](CCCNC(=N)N)C(=O)N[C@@H](CCCNC(=N)N)C(=O)NCC(=O)N[C@@H](Cc1ccc(O)cc1)C(=O)N[C@@H](CCCCN)C(=O)N[C@@H](CSC1CC(=O)N(CCC(=O)Nc2ccc(-c3c4nc(c(-c5ccccc5)c5ccc([nH]5)c(-c5ccccc5)c5nc(c(-c6ccccc6)c6ccc3[nH]6)C=C5)C=C4)cc2)C1=O)C(N)=O (some centres unmarked) [Compound 20] | 94 ± 6 | ≫1 μM | efficient uptake | Endolysosomal localisation | 
saporin |  |  |  |  | approximately 10%
